Measurements: patent US7452905B2, “Phenylalanine derivatives” (Ajinomoto Co., Inc., priority 2000, dated 2008)

Molecular target: T1, integrin α4 β1 (Homo sapiens, UniProt P05556+P13612)
T1 construct: cell strain Jurkat (ATCC TIB-152) of human T cells, known to express integrin α4 β1; endogenous in cells; host or cells: Jurkat (ATCC TIB-152)
Experiment: VCAM antagonist activity (VCAM-1/α4β1 binding assay), Jurkat cells binding to VCAM-1
Assay type: cell-based
Details: Jurkat cells binding to recombinant human VCAM-1; 50% binding inhibition; read-out: Antagonistic Activity IC50 α 4 β 1/VCAM
Protocol: VCAM Antagonist Activity (VCAM-1/α4β1 Binding Assay)
The capacity of a test substance antagonistic to the binding of cell strain Jurkat (ATCC TIB-152) of human T cells, known to express integrin α4 β1, to VCAM-1 was determined. 100 μl/well of a solution (500 ng/ml) of recombinant human VCAM-1 (R & D systems) solution diluted with buffer A (0.1 M NaHCO3, pH 9.6) was added to a micro titer plate having 96 wells (Nunc Maxisorp). After the incubation at 4° C. overnight, unbound VCAM-1 was removed by washing once with PBS. After completion of the washing, a buffer (buffer B) obtained by diluting Block Ace (Dainippon Pharmaceutical Co., Ltd.) with PBS to ¼ concentration was added in an amount of 150 μl/well. After the incubation at room temperature for 1 hour, buffer B was removed and the plate was washed with PBS once.
Jurkat cells were washed with Dulbecco modified Eagle medium (SIGMA, hereinafter referred to as “DMEM”) twice and then incubated in DMEM containing 10 μg/ml of Calcein-AM (Wako Pure Chemical Industries, Ltd.) at 37° C. in dark place for 30 minutes to label with fluorescence. The cells were again suspended in a binding buffer (20 mM HEPES, DMEM containing 0.1% BSA).
50 μl of a test substance of various concentrations obtained by the dilution with the binding buffer was added to the plate. Immediately thereafter, 50 μl (final volume: 100 μl well) of the fluorescent Jurkat cells (4×10^6 cells/ml) were added thereto, and they were incubated at room temperature for 30 minutes. After the shaking on a plate shaker (IKA MTS-4) at 800 rpm for 30 seconds, the solution was immediately removed to remove the unbound cells. The fluorescence quantity of the bound cells remaining in the wells was determined with a fluorescent plate reader (Wallac 1420 ARVO multi-label counter) (filter excitation wave length: 485 nm, emission wave length: 535 nm). The fluorescent strength thus obtained is proportional to the number of Jurkat cells bound to VCAM-1 and remaining on the plate. The binding rate of each test material in various concentrations was determined while the fluorescent strength of the test material-free well was determined to be 100%. The concentration IC50 for the 50% binding inhibition was calculated.

T1 sequence (P13612 34-1032): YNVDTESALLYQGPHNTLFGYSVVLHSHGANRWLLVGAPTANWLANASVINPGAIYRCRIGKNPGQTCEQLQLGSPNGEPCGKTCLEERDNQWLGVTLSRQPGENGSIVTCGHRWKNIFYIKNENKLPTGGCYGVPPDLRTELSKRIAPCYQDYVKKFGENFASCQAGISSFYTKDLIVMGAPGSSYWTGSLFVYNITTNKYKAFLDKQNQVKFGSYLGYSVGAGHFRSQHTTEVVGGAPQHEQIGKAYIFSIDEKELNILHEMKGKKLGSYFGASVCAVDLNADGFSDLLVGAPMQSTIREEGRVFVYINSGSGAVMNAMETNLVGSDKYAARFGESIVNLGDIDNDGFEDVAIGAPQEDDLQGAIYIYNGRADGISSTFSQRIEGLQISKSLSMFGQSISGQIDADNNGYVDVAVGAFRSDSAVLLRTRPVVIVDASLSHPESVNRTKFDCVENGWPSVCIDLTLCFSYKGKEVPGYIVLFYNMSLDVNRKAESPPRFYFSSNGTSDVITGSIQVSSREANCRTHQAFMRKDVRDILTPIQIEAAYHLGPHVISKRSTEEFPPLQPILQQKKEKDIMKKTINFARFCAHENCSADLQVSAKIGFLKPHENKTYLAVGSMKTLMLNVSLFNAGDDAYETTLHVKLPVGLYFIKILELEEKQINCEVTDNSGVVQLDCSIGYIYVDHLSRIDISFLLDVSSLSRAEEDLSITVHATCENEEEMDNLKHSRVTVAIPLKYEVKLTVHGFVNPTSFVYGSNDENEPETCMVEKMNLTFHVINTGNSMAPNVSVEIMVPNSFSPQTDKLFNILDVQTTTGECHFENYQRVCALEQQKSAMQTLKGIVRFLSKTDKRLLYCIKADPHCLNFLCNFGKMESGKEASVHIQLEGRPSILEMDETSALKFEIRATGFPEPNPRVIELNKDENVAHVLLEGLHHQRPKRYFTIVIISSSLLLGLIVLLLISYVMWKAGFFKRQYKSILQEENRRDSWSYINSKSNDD
T1 sequence (P05556 21-798): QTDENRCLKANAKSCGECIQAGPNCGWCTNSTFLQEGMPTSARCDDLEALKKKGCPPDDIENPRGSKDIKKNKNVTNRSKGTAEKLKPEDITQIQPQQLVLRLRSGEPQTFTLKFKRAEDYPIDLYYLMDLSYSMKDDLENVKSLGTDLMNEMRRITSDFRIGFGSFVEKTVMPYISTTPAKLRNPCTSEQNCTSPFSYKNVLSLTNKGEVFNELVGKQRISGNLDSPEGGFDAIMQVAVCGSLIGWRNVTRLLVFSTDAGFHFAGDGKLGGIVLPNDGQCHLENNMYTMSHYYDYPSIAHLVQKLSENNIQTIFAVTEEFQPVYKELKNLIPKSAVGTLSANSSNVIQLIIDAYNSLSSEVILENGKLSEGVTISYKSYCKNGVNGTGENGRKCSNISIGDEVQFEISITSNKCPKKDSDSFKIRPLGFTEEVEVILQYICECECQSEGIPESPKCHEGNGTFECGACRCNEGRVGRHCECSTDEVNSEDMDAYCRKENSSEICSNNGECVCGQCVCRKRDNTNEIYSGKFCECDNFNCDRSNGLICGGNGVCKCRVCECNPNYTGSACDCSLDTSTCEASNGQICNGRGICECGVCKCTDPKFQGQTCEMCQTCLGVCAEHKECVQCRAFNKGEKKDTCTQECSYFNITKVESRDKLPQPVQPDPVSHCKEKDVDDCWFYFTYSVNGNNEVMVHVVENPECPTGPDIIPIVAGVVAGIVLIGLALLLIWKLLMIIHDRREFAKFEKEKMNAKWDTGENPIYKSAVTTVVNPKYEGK

IC50	SMILES
210 nM	O=C(N[C@@H](Cc1ccc(N2C(=O)c3ccccc3C2=O)cc1)C(=O)O)c1c(Cl)cccc1Cl [Example 1]
240 nM	Cc1ccc2c(c1)C(=O)N(c1ccc(C[C@H](NC(=O)c3c(Cl)cccc3Cl)C(=O)O)cc1)C2=O [Example 6]
170 nM	O=C(N[C@@H](Cc1ccc(N2C(=O)c3ccc([N+](=O)[O-])cc3C2=O)cc1)C(=O)O)c1c(Cl)cccc1Cl [Example 9]
740 nM	O=C(N[C@@H](Cc1ccc(N2C(=O)Cc3ccccc3C2=O)cc1)C(=O)O)c1c(Cl)cccc1Cl [Example 15]
1100 nM	O=C(N[C@@H](Cc1ccc(N2C(=O)c3cccc4cccc(c34)C2=O)cc1)C(=O)O)c1c(Cl)cccc1Cl [Example 16]
1900 nM	O=C(N[C@@H](Cc1ccc(N2Cc3ccccc3C2=O)cc1)C(=O)O)c1c(Cl)cccc1Cl [Example 17]
5000 nM	O=C(N[C@@H](Cc1ccc(N2CC=CC2=O)cc1)C(=O)O)c1c(Cl)cccc1Cl [Example 25]
5300 nM	O=C(N[C@@H](Cc1ccc(N2CC=CCC2=O)cc1)C(=O)O)c1c(Cl)cccc1Cl [Example 26]
2800 nM	O=C(N[C@@H](Cc1ccc(N2CC=CCCC2=O)cc1)C(=O)O)c1c(Cl)cccc1Cl [Example 27]
450 nM	Cc1ccc(C)c2c1C(=O)N(c1ccc(C[C@H](NC(=O)c3c(Cl)cccc3Cl)C(=O)O)cc1)C2=O [Example 30]
260 nM	CN(C)C(=O)c1ccc2c(c1)C(=O)N(c1ccc(C[C@H](NC(=O)c3c(Cl)cccc3Cl)C(=O)O)cc1)C2=O [Example 33]
140 nM	O=C(N[C@@H](Cc1ccc(N2C(=O)C3=C(CCCC3)C2=O)cc1)C(=O)O)c1c(Cl)cccc1Cl [Example 37]
220 nM	O=C(N[C@@H](Cc1ccc(N2C(=O)C3=C(SCCS3)C2=O)cc1)C(=O)O)c1c(Cl)cccc1Cl [Example 38]
240 nM	O=C(N[C@@H](Cc1ccc(N2C(=O)[C@@H]3CCCC[C@H]3C2=O)cc1)C(=O)O)c1c(Cl)cccc1Cl [Example 40]
560 nM	O=C(N[C@@H](Cc1ccc(N2C(=O)[C@@H]3[C@H](C2=O)[C@@H]2C=C[C@H]3C2)cc1)C(=O)O)c1c(Cl)cccc1Cl [Example 42]
1600 nM	CC1CCC2C(=O)N(c3ccc(C[C@H](NC(=O)c4c(Cl)cccc4Cl)C(=O)O)cc3)C(=O)C2C1 (some centres unmarked) [Example 43]
1400 nM	O=C(N[C@@H](Cc1ccc(N2C(=O)[C@@H]3[C@H](C2=O)[C@@H]2C=C[C@H]3CC2)cc1)C(=O)O)c1c(Cl)cccc1Cl [Example 44]
1200 nM	O=C(N[C@@H](Cc1ccc(N2C(=O)[C@H]3CC=CC[C@H]3C2=O)cc1)C(=O)O)c1c(Cl)cccc1Cl [Example 45]

IC50	SMILES
1700 nM	O=C(N[C@@H](Cc1ccc(N2C(=O)C3CC3C2=O)cc1)C(=O)O)c1c(Cl)cccc1Cl (some centres unmarked) [Example 46]
2100 nM	O=C(N[C@@H](Cc1ccc(N2C(=O)[C@H]3CC[C@H](c4ccccc4)C[C@H]3C2=O)cc1)C(=O)O)c1c(Cl)cccc1Cl [Example 47]
1300 nM	O=C(N[C@@H](Cc1ccc(N2C(=O)CC3(CCCC3)CC2=O)cc1)C(=O)O)c1c(Cl)cccc1Cl [Example 48]
2000 nM	CC1(C)[C@H]2CC[C@]1(C)C(=O)N(c1ccc(C[C@H](NC(=O)c3c(Cl)cccc3Cl)C(=O)O)cc1)C2=O [Example 49]
73 nM	Cc1cccc2c1C(=O)N(c1ccc(C[C@H](NC(=O)c3c(Cl)cncc3Cl)C(=O)O)cc1)C2=O [Example 59]
410 nM	Nc1cccc2c1C(=O)N(c1ccc(C[C@H](NC(=O)c3c(Cl)cccc3Cl)C(=O)O)cc1)C2=O [Example 71]
210 nM	CCOc1cccc2c1C(=O)N(c1ccc(C[C@H](NC(=O)c3c(Cl)cccc3Cl)C(=O)O)cc1)C2=O [Example 73]
1200 nM	O=C(N[C@@H](Cc1ccc(N2C(=O)c3cccc(OCc4ccccc4)c3C2=O)cc1)C(=O)O)c1c(Cl)cccc1Cl [Example 74]
790 nM	CCCCOc1cccc2c1C(=O)N(c1ccc(C[C@H](NC(=O)c3c(Cl)cccc3Cl)C(=O)O)cc1)C2=O [Example 75]
770 nM	O=C(N[C@@H](Cc1ccc(N2C(=O)c3ccc(O)cc3C2=O)cc1)C(=O)O)c1c(Cl)cccc1Cl [Example 77]
520 nM	COc1ccc2c(c1)C(=O)N(c1ccc(C[C@H](NC(=O)c3c(Cl)cccc3Cl)C(=O)O)cc1)C2=O [Example 78]
570 nM	CCOc1ccc2c(c1)C(=O)N(c1ccc(C[C@H](NC(=O)c3c(Cl)cccc3Cl)C(=O)O)cc1)C2=O [Example 79]
1100 nM	O=C(N[C@@H](Cc1ccc(N2C(=O)c3ccc(OCc4ccccc4)cc3C2=O)cc1)C(=O)O)c1c(Cl)cccc1Cl [Example 80]
3500 nM	O=C(N[C@@H](Cc1ccc(N2C(=O)Cc3ccccc3CC2=O)cc1)C(=O)O)c1c(Cl)cccc1Cl [Example 82]
5.9 nM	Cc1cccc2c1C(=O)N(c1ccc(C[C@H](NC(=O)c3c(Cl)cc(-c4nnn[nH]4)cc3Cl)C(=O)O)cc1)C2=O [Example 83, (2S)-2-(2,6-dichloro-4-tetrazolyl-benzoylamino)-3-[4-(4-methyl-1,3-dioxo-1,3-dihydroisoindole-2-yl)phenyl] Propionic Acid]
15 nM	Cc1cccc2c1C(=O)N(c1ccc(C[C@H](NC(=O)c3c(Cl)cc(NS(C)(=O)=O)cc3Cl)C(=O)O)cc1)C2=O [Example 84]
530 nM	CC(=O)C1Cc2ccccc2C(=O)N1c1ccc(C[C@H](NC(=O)c2c(Cl)cccc2Cl)C(=O)O)cc1 (some centres unmarked) [Example 86]
